The source made the active and inactive calls. The rule behind the calls is not given here.
Columns and labels:
[1] = biological target: DNA-directed RNA polymerase, mitochondrial (Homo sapiens) (UniProt O00411); assay: Inhibition of human POLRMT in human MIA PaCa-2 cells assessed as mitochondria coded ubiquinone oxidoreductase core subunit 1 (ND I) transcript level at 500 nM measured after 24 hrs by RT-qPCR analysis relative to control; set-up: scale not given: the % may be the effect or the level left
MIA PaCa-2 [2] = assay: Antiproliferative activity against human MIA PaCa-2 cells assessed as cell viability measured after 168 hrs incubation by SRB assay; assay type: functional, cell-based; conditions: MIA PaCa-2, 168 h
MIA PaCa-2 [3] = assay: Potency index, ratio of IMT1B IC50 to test compound […] for antiproliferative activity against human MIA PaCa-2 cells assessed as cell viability measured after 168 hrs incubation by SRB assay; assay type: functional
MIA PaCa-2 [4] = assay: Reduction in number of mitochondria in human MIA PaCa-2 cells measured after 96 hrs by Mito-Tracker Green and DAPI staining based assay; assay type: functional, cell-based; conditions: dose 10-1000 nM
PANC-1 = assay: Antiproliferative activity against human PANC-1 cells assessed as cell viability measured after 168 hrs incubation by SRB assay; assay type: functional, cell-based; conditions: PANC-1, 168 h
[5] = Toxicity in BALB/c mouse xenografted with human MIA PaCa-2 cells assessed as pathological change in spleen at 100 mg/kg, iv once daily for 25 consecutive day after 2 weeks of cells injection by H and E staining based optical microscopic analysis; assay type: organism-based; conditions: in vivo, 336 h
MIA PaCa-2 [6] = assay: Induction of intracellular ROS generation in human MIA PaCa-2 cells at 0.1 to 5 uM incubated for 96 hrs by DCFH-DA staining based flow cytometry; assay type: functional, cell-based; conditions: dose 0.1-5 µM
[7] = Antiproliferative activity against human […] cells assessed as cell viability measured after 168 hrs incubation by SRB assay; assay type: functional, cell-based
[8] = Toxicity in BALB/c mouse xenografted with human MIA PaCa-2 cells assessed as pathological change in liver at 100 mg/kg, iv once daily for 25 consecutive day after 2 weeks of cells injection by H and E staining based optical microscopic analysis; assay type: organism-based; conditions: in vivo, 336 h
[9] = Toxicity in BALB/c mouse xenografted with human MIA PaCa-2 cells assessed as pathological change in lung at 100 mg/kg, iv once daily for 25 consecutive day after 2 weeks of cells injection by H and E staining based optical microscopic analysis; assay type: organism-based; conditions: in vivo, 336 h
[10] = Toxicity in BALB/c mouse xenografted with human MIA PaCa-2 cells assessed as pathological change in heart at 100 mg/kg, iv once daily for 25 consecutive day after 2 weeks of cells injection by H and E staining based optical microscopic analysis; assay type: organism-based; conditions: in vivo, 336 h
[11] = Toxicity in BALB/c mouse xenografted with human MIA PaCa-2 cells assessed as pathological change in kidney at 100 mg/kg, iv once daily for 25 consecutive day after 2 weeks of cells injection by H and E staining based optical microscopic analysis; assay type: organism-based; conditions: in vivo, 336 h
CAPAN-1 = assay: Antiproliferative activity against human CAPAN-1 cells assessed as cell viability measured after 168 hrs incubation by SRB assay; assay type: functional, cell-based; conditions: CAPAN-1, 168 h
MIA PaCa-2 [12] = assay: Effect on mitochondrial membrane potential loss in human MIA PaCa-2 cells assessed as change in membrane potential at 0.1 to 5 uM incubated for 96 hrs by JC-1 staining based flow cytometry analysis; assay type: functional, cell-based; conditions: dose 0.1-5 µM
MIA PaCa-2 [13] = assay: In vivo antitumor activity against human MIA PaCa-2 cells xenografted in BALB/c mouse assessed as reduction in tumor weight at 100 mg/kg, iv once daily for 25 consecutive day after 2 weeks of cells injection relative to control; assay type: functional; conditions: MIA PaCa-2, 600 h, time 25 day
[14] = Antiproliferative activity against HUVEC cells assessed as cell viability measured after 168 hrs incubation by SRB assay; assay type: toxicity, cell-based; conditions: human

Sequence of DNA-directed RNA polymerase, mitochondrial (Homo sapiens) (O00411 whole entry): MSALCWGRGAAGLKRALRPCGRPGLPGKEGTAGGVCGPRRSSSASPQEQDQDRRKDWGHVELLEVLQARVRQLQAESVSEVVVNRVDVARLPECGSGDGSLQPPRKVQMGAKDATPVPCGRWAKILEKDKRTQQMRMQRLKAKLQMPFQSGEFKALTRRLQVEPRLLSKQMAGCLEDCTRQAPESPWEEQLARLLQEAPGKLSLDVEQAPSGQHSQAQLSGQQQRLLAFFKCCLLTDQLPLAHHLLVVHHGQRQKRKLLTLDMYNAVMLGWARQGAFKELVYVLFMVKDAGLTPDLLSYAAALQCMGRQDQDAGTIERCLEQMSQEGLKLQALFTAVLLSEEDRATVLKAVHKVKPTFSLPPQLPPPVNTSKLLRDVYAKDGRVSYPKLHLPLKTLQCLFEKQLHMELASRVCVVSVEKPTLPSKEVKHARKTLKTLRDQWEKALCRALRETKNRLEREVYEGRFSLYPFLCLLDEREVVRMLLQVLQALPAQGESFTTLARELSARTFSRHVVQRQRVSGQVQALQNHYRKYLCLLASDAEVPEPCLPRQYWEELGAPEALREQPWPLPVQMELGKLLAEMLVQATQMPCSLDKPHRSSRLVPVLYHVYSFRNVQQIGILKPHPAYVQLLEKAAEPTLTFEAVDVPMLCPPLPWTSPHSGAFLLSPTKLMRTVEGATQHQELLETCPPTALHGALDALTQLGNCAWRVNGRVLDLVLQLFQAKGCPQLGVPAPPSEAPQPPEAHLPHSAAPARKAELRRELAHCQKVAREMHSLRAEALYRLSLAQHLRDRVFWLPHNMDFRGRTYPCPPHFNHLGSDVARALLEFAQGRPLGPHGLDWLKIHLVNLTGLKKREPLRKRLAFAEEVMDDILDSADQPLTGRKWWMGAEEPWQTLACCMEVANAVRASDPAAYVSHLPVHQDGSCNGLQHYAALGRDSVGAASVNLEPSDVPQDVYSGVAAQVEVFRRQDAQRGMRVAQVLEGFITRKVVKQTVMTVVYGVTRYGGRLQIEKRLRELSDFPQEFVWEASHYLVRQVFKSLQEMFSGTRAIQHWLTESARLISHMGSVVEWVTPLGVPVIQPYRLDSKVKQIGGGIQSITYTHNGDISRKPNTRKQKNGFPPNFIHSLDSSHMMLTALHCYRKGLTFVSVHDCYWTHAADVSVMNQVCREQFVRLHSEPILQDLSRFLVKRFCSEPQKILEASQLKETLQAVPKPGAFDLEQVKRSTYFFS

| Activity [1] [%] | IC50 (MIA PaCa-2 [2]) [nM] | Structure (SMILES) | also measured |
| --- | --- | --- | --- |
| 15 | 72 | C[C@@H](Oc1cc2oc(=O)cc(-c3ccc(F)cc3Cl)c2cc1F)C(=O)N1CCCOCC1 |  |
| 25 | 171 | C[C@@H](Oc1cc2oc(=O)cc(-c3ccc(F)cc3Cl)c2cc1F)C(=O)N(C)C |  |
| 28 | 377 | C[C@@H](Oc1cc2oc(=O)cc(-c3ccc(F)cc3Cl)c2cc1F)C(=O)N1CCC(F)(F)CC1 |  |
| 46 | 1090 | CC(C)c1cc2c(-c3ccc(F)cc3Cl)cc(=O)oc2cc1O[C@H](C)C(=O)N1CCC[C@H](C(=O)O)C1 |  |
| 22 | 145 | C[C@@H](Oc1cc2oc(=O)cc(-c3ccc(F)cc3Cl)c2cc1F)C(=O)N1CCC[C@H](C(=O)O)C1 |  |
| 60 | 3240 | CCN(CC)C(=O)[C@@H](C)Oc1cc2oc(=O)cc(-c3cccc(Cl)c3)c2cc1F |  |
| 48 | 1130 | CCN(CC)C(=O)[C@@H](C)Oc1cc2oc(=O)cc(-c3ccccc3OC)c2cc1F |  |
| 22 | 139 | C[C@@H](Oc1cc2oc(=O)cc(-c3ccc(F)cc3Cl)c2cc1F)C(=O)NCC(F)F |  |
| 13 | 44 | CCN(CC)C(=O)[C@@H](C)Oc1cc2oc(=O)cc(-c3ccc(F)cc3Cl)c2cc1F | Ratio IC50 (MIA PaCa-2 [3]): 3 |
| 51 | 1160 | C[C@@H](Oc1cc2oc(=O)cc(-c3ccc(F)cc3Cl)c2cc1F)C(=O)NCCC#N |  |
| 52 | 2230 | CO[C@H]1CC[C@@H](NC(=O)[C@@H](C)Oc2cc3oc(=O)cc(-c4ccc(F)cc4Cl)c3cc2F)CC1 |  |
| 19 | 115 | C[C@@H](Oc1cc2oc(=O)cc(-c3ccc(F)cc3Cl)c2cc1F)C(=O)N1CCC(F)CC1 |  |
| 85 | > 5000 | C[C@@H](Oc1cc(Cl)c2c(-c3ccc(F)cc3Cl)cc(=O)oc2c1)C(=O)N1CCC[C@H](C(=O)O)C1 |  |
| 35 | 456 | C[C@@H](Oc1cc2oc(=O)cc(-c3ccc(F)cc3Cl)c2cc1F)C(=O)N1CCCC1 |  |
| 10 | 14 | CCN(CC)C(=O)[C@@H](C)Oc1cc2oc(=O)cc(-c3ccccc3Cl)c2cc1F |  |
| 30 | 400 | CCN(CC)C(=O)[C@@H](C)Oc1cc2oc(=O)cc(-c3ccccc3F)c2cc1F |  |
| 33 | 493 | C[C@@H](Oc1cc2oc(=O)cc(-c3ccc(F)cc3Cl)c2cc1F)C(=O)N1CCC1 |  |
| 30 |  | C[C@@H](Oc1cc2oc(=O)cc(-c3ccc(F)cc3Cl)c2cc1Cl)C(=O)N1CCC[C@H](C(=O)O)C1 |  |
| 119 | > 5000 | C[C@@H](Oc1ccc2c(-c3ccc(F)cc3Cl)cc(=O)oc2c1Cl)C(=O)N1CCC[C@H](C(=O)O)C1 |  |
| 16 | 78 | C[C@@H](Oc1cc2oc(=O)cc(-c3ccc(F)cc3Cl)c2cc1F)C(=O)N1CCCCC1 |  |
| 44 | 682 | CCN(CC)C(=O)[C@@H](C)Oc1cc2oc(=O)cc(-c3ccccc3)c2cc1F |  |
| 55 | 2240 | CCN(CC)C(=O)[C@@H](C)Oc1cc2oc(=O)cc(-c3ccc(Cl)cc3)c2cc1F |  |
| 26 | 305 | C[C@@H](Oc1cc2oc(=O)cc(-c3ccc(F)cc3Cl)c2cc1F)C(=O)N1CCCC(C#N)C1 (stereo partly drawn) |  |
| 34 | 523 | C[C@@H](Oc1cc2oc(=O)cc(-c3ccc(F)cc3Cl)c2cc1F)C(=O)N1CCC(Cl)CC1 |  |
| 67 | > 5000 | COc1cc2c(-c3ccc(F)cc3Cl)cc(=O)oc2cc1O[C@H](C)C(=O)N1CCC[C@H](C(=O)O)C1 |  |
| 31 | 486 | CC1CCN(C(=O)[C@@H](C)Oc2cc3oc(=O)cc(-c4ccc(F)cc4Cl)c3cc2F)CC1 |  |
| 26 | 294 | C[C@@H](Oc1cc2oc(=O)cc(-c3ccc(F)cc3Cl)c2cc1F)C(=O)NCC1CC1 |  |
| 42 | 739 | CCN(CC)C(=O)[C@@H](C)Oc1cc2oc(=O)cc(-c3cccc4ccccc34)c2cc1F |  |
| 50 | 1690 | C[C@@H](Oc1cc2oc(=O)cc(-c3ccc(F)cc3Cl)c2cc1F)C(=O)N(C)C1COC1 |  |

| Structure (SMILES) | Activity [1] [%] | IC50 (MIA PaCa-2 [2]) [nM] | also measured |
| --- | --- | --- | --- |
| C[C@@H](Oc1ccc2c(-c3ccc(F)cc3Cl)cc(=O)oc2c1)C(=O)N1CCC[C@H](C(=O)O)C1 | 23 | 159 | Activity (MIA PaCa-2 [4]): Dose-Dependent Effect; IC50 (PANC-1): 1570 nM; Activity [5]: Non-Toxic; Activity (MIA PaCa-2 [6]): inactive; IC50 [7]: 67 nM; Activity [8]: Non-Toxic; Activity [9]: Non-Toxic; Activity [10]: Non-Toxic; Activity [11]: Non-Toxic; IC50 (CAPAN-1): 1350 nM; Activity (MIA PaCa-2 [12]): inactive; inhibition in vivo at 100 mg/kg (MIA PaCa-2 [13]): 44.8%; IC50 at 168 h [14]: > 50000 nM |

— ChEMBL document CHEMBL5550206, “Identification of 6-Fluorine-Substituted Coumarin Analogues as POLRMT Inhibitors with High Potency and Safety for Treatment of Pancreatic Cancer” (J Med Chem, 2024)
